Experimental data as given in ChEMBL document CHEMBL5257093, “3-Arylidene-2-oxindoles as GSK3β inhibitors and anti-thrombotic agents” (Bioorg Med Chem Lett, 2023).

Tests used:
[1] = biological target: Glycogen synthase kinase-3 beta (Homo sapiens, UniProt P49841); assay: Inhibition of recombinant human GSK3beta […] assessed as reduction in human muscle glycogen synthase type 1 fragment phosphorylation using YRRAAVPPSPSLSRHSSPHQ(pS)EDE as substrate in presence of ATP incubated for 60 mins by ADP-Glo kinase assay
Glycogen synthase kinase-3 beta, sequence (P49841 whole entry, the tested form may be a part): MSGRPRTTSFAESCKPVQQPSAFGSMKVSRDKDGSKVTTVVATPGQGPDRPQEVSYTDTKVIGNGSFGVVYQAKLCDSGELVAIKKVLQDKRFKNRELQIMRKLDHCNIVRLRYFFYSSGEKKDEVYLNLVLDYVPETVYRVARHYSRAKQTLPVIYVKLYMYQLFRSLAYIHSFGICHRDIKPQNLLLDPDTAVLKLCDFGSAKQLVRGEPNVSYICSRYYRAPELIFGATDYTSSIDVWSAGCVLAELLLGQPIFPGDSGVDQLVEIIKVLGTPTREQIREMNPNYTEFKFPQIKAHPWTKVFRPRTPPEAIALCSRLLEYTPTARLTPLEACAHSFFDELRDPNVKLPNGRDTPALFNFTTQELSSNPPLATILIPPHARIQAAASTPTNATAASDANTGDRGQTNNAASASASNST

Peritoneal macrophage = assay: (§1) Cytotoxicity against mouse Peritoneal macrophages assessed as LDH release by LDH assay; type: toxicity, cell-based; conditions: peritoneal macrophage
Homo sapiens [2] = organism: Homo sapiens; assay: Antiplatelet activity in platelet rich plasma (unknown origin) assessed as inhibition of ADP-induced platelet aggregation incubated for 5 mins by aggregometer analysis; type: functional
Homo sapiens [3] = organism: Homo sapiens; assay: Antiplatelet activity in platelet rich plasma (unknown origin) assessed as inhibition of collagen-induced platelet aggregation incubated for 5 mins by aggregometer analysis; type: functional
Homo sapiens [4] = organism: Homo sapiens; assay: cells; conditions: Platelet, Plasma, 5 min, read-out: INH
Description: Antiplatelet activity in platelet rich plasma (unknown origin) assessed as inhibition of ADP-induced platelet aggregation at 100 uM incubated for 5 mins by aggregometer analysis

Homo sapiens [5] = organism: Homo sapiens; assay: cells; conditions: Platelet, Plasma, 5 min, read-out: INH; remark: listed apart in the source
Description: Antiplatelet activity in platelet rich plasma (unknown origin) assessed as inhibition of ADP-induced platelet aggregation at 1 uM incubated for 5 mins by aggregometer analysis

Homo sapiens [6] = organism: Homo sapiens; assay: cells; conditions: Platelet, Plasma, 5 min, read-out: INH; remark: listed apart in the source
Description: Antiplatelet activity in platelet rich plasma (unknown origin) assessed as inhibition of ADP-induced platelet aggregation at 10 uM incubated for 5 mins by aggregometer analysis

[7] = as §1; type: toxicity, cell-based, Peritoneal macrophage; conditions: peritoneal macrophages
Rattus norvegicus = assay: Antithrombotic activity FeCl3-induced carotid artery thrombosis rat model assessed as prolongation of artery occlusion time pretreated dosed IG for 2 hrs followed by 50% FeCl3 application; type: functional; conditions: po

O=C1Nc2ccccc2/C1=C\c1ccc(O)cc1
IC50 [1]: > 50 µM

O=C1Nc2ccccc2C12CC2c1ccccn1 (stereo not given)
CC50 (Peritoneal macrophage): > 100 µM | IC50 (Homo sapiens [2]; read-out: IC50): 8.9 µM | IC50 (Homo sapiens [3]; read-out: IC50): 37 µM

Nc1ccc(CC2C(=O)Nc3ccccc32)cc1 (stereo not given)
IC50 [1]: 50 µM

Cc1ccc(C(=O)CC2(O)C(=O)Nc3ccc(NC(=O)c4ccccc4)cc32)cc1 (stereo not given)
IC50 [1]: 1.72 µM

O=C1Nc2ccc([N+](=O)[O-])cc2/C1=C\c1cccnc1
IC50 [1]: 20 µM

O=C1Nc2ccc(NC(=O)c3ccccc3)cc2/C1=C\c1ccc(O)cc1
inhibition at 100 µM (Homo sapiens [4]): 72.3% | CC50 (Peritoneal macrophage): > 100 µM | IC50 (Homo sapiens [2]; read-out: IC50): 18.5 µM | inhibition at 1 µM (Homo sapiens [5]): 19.3% | inhibition at 10 µM (Homo sapiens [6]): 37.2% | IC50 (Homo sapiens [3]; read-out: IC50): 46.7 µM

COCC(=O)c1[nH]ncc1/C=C1\C(=O)Nc2ccccc21
IC50 [1]: 6.72 µM

CC(=O)Nc1ccc2c(c1)/C(=C\c1cccnc1)C(=O)N2
IC50 [1]: > 50 µM

CN1C(=O)/C(=C/c2ccccn2)c2ccccc21
IC50 [1]: > 50 µM

COC(=O)Nc1ccc2c(c1)/C(=C\c1ccc([N+](=O)[O-])cc1)C(=O)N2
IC50 [1]: 0.348 µM

Cn1cc(/C=C2/C(=O)Nc3ccccc32)cn1
IC50 [1]: 13.5 µM

CCOC(=O)c1[nH]ncc1/C=C1\C(=O)Nc2ccc([N+](=O)[O-])cc21
IC50 [1]: 1.77 µM

Nc1ccc2c(c1)C(Cc1ccccn1)C(=O)N2 (stereo not given)
IC50 [1]: > 50 µM

COC(=O)Nc1ccc2c(c1)/C(=C\c1ccc(O)cc1)C(=O)N2
CC50 (Peritoneal macrophage): > 100 µM | IC50 (Homo sapiens [2]; read-out: IC50): 13.5 µM | IC50 (Homo sapiens [3]; read-out: IC50): > 100 µM

O=C1Nc2ccccc2C1Cc1cccnc1 (stereo not given)
inhibition at 100 µM (Homo sapiens [4]): 75.6% | CC50 [7]: > 100 µM | inhibition at 1 µM (Homo sapiens [5]): 26.5% | inhibition at 10 µM (Homo sapiens [6]): 55.6% | ED50 (Rattus norvegicus): 7.3 mg/kg | IC50 [1]: 0.0042 µM | IC50 (Homo sapiens [3]; read-out: IC50): 3 µM

CC(=O)Nc1ccc2c(c1)/C(=C\c1ccc(O)cc1)C(=O)N2
IC50 [1]: 34.4 µM

Cc1n[nH]cc1/C=C1/C(=O)Nc2ccccc21
IC50 [1]: 5.68 µM

CC(=O)Oc1ccccc1C(=O)O [ASPIRIN]
IC50 (Homo sapiens [2]): 81 µM | ED50 (Rattus norvegicus): 137 mg/kg | IC50 (Homo sapiens [3]): 4.5 µM
